Reference: ChEMBL document CHEMBL1157750, “Synthesis and evaluation of 17alpha-arylestradiols as ligands for estrogen receptor alpha and beta” (J Med Chem, 2010)
pEC50, pIC50: −log10 of the molar value. Calls of active or inactive are those of the source. The calls are words filed in the database; no cut-off is given here.

What was measured:
[1] = test system: MCF7; test: Estrogenic activity in human MCF7 cells assessed as induction of cell proliferation at 100 nM after 6 days by fluorescence assay; type: functional, cell-based
[2] = test system: MCF7; test: Estrogenic activity in human MCF7 cells assessed as induction of cell proliferation at 0.001 to 1 nM after 6 days by fluorescence assay; type: functional, cell-based
[3] = biological target: T1, Estrogen receptor beta (Homo sapiens, UniProt Q92731)
Description: Binding affinity to ERbeta by fluorescence polarization-based competitive binding assay

[4] = species: Homo sapiens; test: Selectivity ratio of EC50 for human ERbeta to EC50 for human ERalpha
[5] = biological target: T2, Estrogen receptor (Homo sapiens, UniProt P03372)
T2 sequence (P03372 whole entry): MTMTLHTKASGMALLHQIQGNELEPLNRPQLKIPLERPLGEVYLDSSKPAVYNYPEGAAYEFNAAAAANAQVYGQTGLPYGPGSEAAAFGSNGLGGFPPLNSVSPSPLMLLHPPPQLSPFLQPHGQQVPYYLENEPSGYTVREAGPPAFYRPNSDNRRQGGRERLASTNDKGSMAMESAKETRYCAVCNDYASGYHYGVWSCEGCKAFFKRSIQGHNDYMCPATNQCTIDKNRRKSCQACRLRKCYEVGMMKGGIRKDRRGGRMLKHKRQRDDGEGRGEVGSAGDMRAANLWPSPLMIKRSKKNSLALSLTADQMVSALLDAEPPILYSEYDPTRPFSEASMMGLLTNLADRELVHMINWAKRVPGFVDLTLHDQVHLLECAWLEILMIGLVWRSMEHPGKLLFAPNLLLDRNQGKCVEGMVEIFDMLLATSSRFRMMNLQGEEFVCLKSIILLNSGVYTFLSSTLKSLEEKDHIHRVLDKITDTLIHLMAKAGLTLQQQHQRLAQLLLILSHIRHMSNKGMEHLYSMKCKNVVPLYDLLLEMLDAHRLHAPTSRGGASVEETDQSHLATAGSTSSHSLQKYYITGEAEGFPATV
Description: Binding affinity to ERalpha by fluorescence polarization-based competitive binding assay

[6] = biological target: T1, Estrogen receptor beta; remark: listed apart in the source
Description: Transactivation of human ERbeta expressed in HEK293 cells after 18 hrs by luciferase reporter gene assay

[7] = biological target: T2, Estrogen receptor; remark: listed apart in the source
Description: Transactivation of human ERalpha expressed in HEK293 cells after 18 hrs by luciferase reporter gene assay

[8] = test system: MCF7; test: Estrogenic activity in human MCF7 cells assessed as induction of cell proliferation at 1 nM after 6 days by fluorescence assay; type: functional, cell-based

T1 sequence (Q92731 whole entry): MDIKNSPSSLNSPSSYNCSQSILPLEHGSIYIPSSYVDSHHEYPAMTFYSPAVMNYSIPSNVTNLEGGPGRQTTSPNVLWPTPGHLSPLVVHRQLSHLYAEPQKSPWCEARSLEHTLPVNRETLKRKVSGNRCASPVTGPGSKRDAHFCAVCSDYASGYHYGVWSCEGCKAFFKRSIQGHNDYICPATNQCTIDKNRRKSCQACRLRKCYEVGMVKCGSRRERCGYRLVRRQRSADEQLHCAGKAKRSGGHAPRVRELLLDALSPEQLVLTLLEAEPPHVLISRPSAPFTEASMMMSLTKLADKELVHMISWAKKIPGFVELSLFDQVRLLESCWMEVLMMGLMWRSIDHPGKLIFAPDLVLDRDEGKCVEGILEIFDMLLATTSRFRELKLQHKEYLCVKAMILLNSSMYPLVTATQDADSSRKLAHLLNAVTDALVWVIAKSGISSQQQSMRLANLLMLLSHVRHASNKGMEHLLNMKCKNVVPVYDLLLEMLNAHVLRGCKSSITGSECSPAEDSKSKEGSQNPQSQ

## C[C@]12CC[C@@H]3c4ccc(O)cc4CC[C@H]3[C@@H]1CC[C@@]2(O)c1ccc2c(c1)COC2
[1]
  Activity: Active
[2]
  Activity: Active

## CCOC(=O)C1(C(=O)OCC)Cc2ccc([C@]3(O)CC[C@H]4[C@@H]5CCc6cc(O)ccc6[C@H]5CC[C@@]43C)cc2C1
[1]
  Activity: Active
[3]
  pIC50: 5.96
[4]
  Ratio EC50: 13
[5]
  pIC50: 6.31
[2]
  Activity: Active
[6]
  pEC50: 6.76
[7]
  pEC50: 7.85

## CCOC(=O)C1(C(C)=O)Cc2ccc([C@]3(O)CC[C@H]4[C@@H]5CCc6cc(O)ccc6[C@H]5CC[C@@]43C)cc2C1 (some centres not stated)
[1]
  Activity: Active
[3]
  pIC50: 6.50
[2]
  Activity: Active
[6]
  pEC50: 7.46

## Cc1ccc(S(=O)(=O)N2Cc3ccc([C@]4(O)CC[C@H]5[C@@H]6CCc7cc(O)ccc7[C@H]6CC[C@@]54C)cc3C2)cc1
[1]
  Activity: Active
[3]
  pIC50: 6.30
[2]
  Activity: Active
[6]
  pEC50: 6.62

## CC(=O)C1(C(C)=O)Cc2ccc([C@]3(O)CC[C@H]4[C@@H]5CCc6cc(O)ccc6[C@H]5CC[C@@]43C)cc2C1
[8]
  Activity: Active
[1]
  Activity: Active
[3]
  pIC50: 6.60
[5]
  pIC50: 6.61
[6]
  pEC50: 6.66
[7]
  pEC50: 6.47

## CCOC(=O)C1(C#N)Cc2ccc([C@]3(O)CC[C@H]4[C@@H]5CCc6cc(O)ccc6[C@H]5CC[C@@]43C)cc2C1 (some centres not stated)
[1]
  Activity: Active
[3]
  pIC50: 7.27
[2]
  Activity: Active
[6]
  pEC50: 7.64
